Patent US20030215817A1, “Modulation of gene expression in formation of fatty atherosclerotic lesions” (priority 2003, published 2003)

Legend:
Type in all cases: in vivo, rabbit
[1] = test system: REC1_28 (digital address CGGT 101) mRNA, calgizzarin; assay: TOGA analysis, REC1_28; details: REC1_28 CGGT 101; rabbit aorta, 14 days cholesterol
Method: (§1) To perform the studies, New Zealand male rabbits weighing 2.0-2.5 kg (Charles River, Calco, Italy) were used. The rabbits were divided into three groups and maintained in identical experimental conditions: (1) control group (n=15); rabbits fed a cholesterol-rich diet; (2) lercanidipine-treated group (n=15); rabbits fed a cholesterol-rich diet and also treated with lercanidipine (3 mg/kg/week); and (3) (R)-lercanidipine-treated group (n=5); rabbits fed a cholesterol-rich diet and also treated with the (R)-enantiomer of lercanidipine (3 mg/kg/week). After a 2 week period of subcutaneous, once a week, pretreatment with 3 mg/kg/week of lercanidipine or (R)-lercanidipine, the rabbits received a daily cholesterol supplement for up to 8 weeks or 2 weeks, respectively. In the following examples, use of the term “lercanidipine” refers to the racemic mixture of lercanidipine hydrochloride, whereas “(R)-lercanidipine” refers to the (R)-enantiomer of lercanidipine hydrochloride.
(§2) The mRNA from the above-described groups was isolated from aorta at different time points, resulting in the following mRNA samples: (1) Day 0 Control=no administered cholesterol, no lercanidipine; (2) Day 0+lercanidipine=no administered cholesterol, treatment with lercanipidine (2 weeks; 3 mg/kg/week); (3) Day 14 Control=cholesterol diet for two weeks, no lercanidipine; (4) Day 14+lercanidipine=cholesterol diet for two weeks, treatment with lercanidipine (four weeks; 3 mg/kg/week); (5) Week 8 Control=cholesterol diet for 8 weeks, no lercanidipine; and (6) Week 8+lercanidipine=cholesterol diet for 8 weeks, treatment with lercanidipine (10 weeks; 3 mg/kg/week). In addition, Day 14+(R)-lercanidipine mRNA samples were prepared from rabbits given a cholesterol diet for two weeks and treated with 3 mg/kg/week (R)-lercanidipine for four weeks.
(§3) Aorta mRNAs were prepared in the following manner. First, the aortas from each experimental group were retrieved and shredded using a polytron homogenizer. The samples were further homogenized using a teflon pestle, after which the cellular debris, nuclei, and blood cells were pelleted by centrifugation. The supernatants were extracted twice with phenol-chloroform-isoamyl alcohol and once with chloroform-isoamyl alcohol. RNA was then precipitated from the aqueous phase with ethanol. The poly A+ mRNA was prepared using standard methods of polyA selection known in the art (Schriber et al., J. Mol. Biol., 142:93-116 (1980)).
(§4) The isolated mRNA was analyzed using a method of simultaneous sequence-specific identification of mRNAs known as TOGA, described in U.S. Pat. No. 5,459,037 and U.S. Pat. No. 5,807,680, hereby incorporated herein by reference. In a preferred embodiment, the TOGA method further comprised an additional PCR step performed using a mixture of four 5′ PCR primers and cDNA templates prepared from a population of antisense cRNAs. A final PCR step that used a mixture of 256 5′ PCR primers produced PCR products that were cDNA fragments that corresponded to the 3′-region of the starting mRNA population. The produced PCR products were then identified by: (a) the initial 5′ sequence comprising the sequence remainder of the recognition site of the restriction endonuclease used to cut and isolate the 3′ region plus the sequence of the preferably four parsing bases immediately 3′ to the remainder of the recognition site, preferably the sequence of the entire fragment; and (b) the length of the fragment. These two parameters, sequence and fragment length, were used to compare the obtained PCR products to a database of known polynucleotide sequences. Since the length of the obtained PCR products includes known vector sequences at the 5′ and 3′ ends of the insert, the sequence of the insert provided in the sequence listing is shorter than the fragment length that forms part of the digital address.
(§5) The method yields Digital Sequence Tags (DSTs), that is, polynucleotides that are expressed sequence tags of the 3′ end of mRNAs. […]

[2] = test system: REC1_33 (digital address CCGA 96) mRNA, as1_casein gene; assay: TOGA analysis, REC1_33; details: REC1_33 CCGA 96; rabbit aorta, 14 days cholesterol
Method: as §1, §2, §3, §4, §5

[3] = test system: REC1_2 (MspI AATC 108) mRNA; assay: TOGA analysis, REC1_2; details: REC1_2, AATC 108; rabbit aorta; 14 days cholesterol + (R)-enantiomer
Method: as §1, §2, §3
as §4, with “These two parameters, sequence and fragment length, were used to compare the obtained PCR products to a database of known polynucleotide sequences. Since the length of the obtained PCR products includes known vector sequences at the 5′ and 3′ ends of the insert, the sequence of the insert provided in the sequence listing is shorter than the fragment length that forms part of the digital address.” left out

[4] = test system: REC1_31 (digital address TGCA 210) mRNA, mitochondrial genome; assay: TOGA analysis, REC1_31; details: REC1_31 TGCA 210; rabbit aorta, cholesterol 14 days
Method: as §1, §2, §3, §4, §5

[5] = test system: REC1_21 (TTCC 165) mRNA, elastin gene; assay: TOGA analysis, REC1_21; details: REC1_21 TTCC 165; rabbit aorta, cholesterol 14 days
Method: as §1, §2, §3
as §4, with “These two parameters, sequence and fragment length, were used to compare the obtained PCR products to a database of known polynucleotide sequences. Since the length of the obtained PCR products includes known vector sequences at the 5′ and 3′ ends of the insert, the sequence of the insert provided in the sequence listing is shorter than the fragment length that forms part of the digital address.” left out

[6] = test system: REC1_34 (digital address CGGT 209) mRNA; assay: TOGA analysis, REC1_34; details: REC1_34 CGGT 209; rabbit aorta, 14 days cholesterol
Method: as §1, §2, §3, §4, §5

[7] = test system: REC1_7 (MspI CACA 282) mRNA; assay: TOGA analysis, REC1_7; details: REC1_7, CACA 282; rabbit aorta; 14 days cholesterol + (R)-enantiomer
Method: as §1, §2, §3, §4, §5

[8] = test system: REC1_22 (digital address TGGG 164) mRNA; assay: TOGA analysis, REC1_22; details: REC1_22 TGGG 164; rabbit aorta, cholesterol 14 days
Method: as §1, §2, §3, §4, §5

[9] = test system: REC1_37 (digital address TTCA 264) mRNA, ribosomal protein L15; assay: TOGA analysis, REC1_37; details: REC1_37 TTCA 264; rabbit aorta, cholesterol 14 days
Method: as §1, §2, §3, §4, §5

[10] = test system: REC1_24 (digital address CCGG 232) mRNA; assay: TOGA analysis, REC1_24; details: REC1_24 CCGG 232; rabbit aorta, 14 days cholesterol
Method: as §1, §2, §3, §4, §5

[11] = test system: REC1_1 (MspI AAGC 288) mRNA, TYRO protein tyrosine kinase binding p; assay: TOGA analysis, REC1_1; details: REC1_1, AAGC 288; rabbit aorta; 14 days cholesterol + (R)-enantiomer
Method: as §1, §2, §3, §4, §5

REC1_19 (TGTT 393) mRNA = assay: TOGA analysis, REC1_19; details: REC1_19 TGTT 393; rabbit aorta, cholesterol 14 days
Method: as §1, §2, §3
as §4, with “These two parameters, sequence and fragment length, were used to compare the obtained PCR products to a database of known polynucleotide sequences. Since the length of the obtained PCR products includes known vector sequences at the 5′ and 3′ ends of the insert, the sequence of the insert provided in the sequence listing is shorter than the fragment length that forms part of the digital address.” left out

COC(=O)C1=C(C)NC(C)=C(C(=O)OC(C)(C)CN(C)CCC(c2ccccc2)c2ccccc2)[C@@H]1c1cccc([N+](=O)[O-])c1 [Lercanidipine (R)]
level of gene expression, 14 Day hypercholesterol + Lercanidipine (R) [1]: 864 | level of gene expression, 14 Day hypercholesterol + Lercanidipine (R) [2]: 170 | level of gene expression (TOGA), 14 Day hypercholesterol + Lercanidipine (R) [3]: 1250 | level of gene expression, 14 Day hypercholesterol + Lercanidipine (R) [4]: 28 | level of gene expression, 14 Day hypercholesterol + Lercanidipine (R) [5]: 1574 | level of gene expression, 14 Day hypercholesterol + Lercanidipine (R) [6]: 58 | level of gene expression (TOGA), 14 Day hypercholesterol + Lercanidipine (R) [7]: 683 | level of gene expression, 14 Day hypercholesterol + Lercanidipine (R) [8]: 47 | level of gene expression, 14 Day hypercholesterol + Lercanidipine (R) [9]: 42 | level of gene expression, 14 Day hypercholesterol + Lercanidipine (R) [10]: 139 | level of gene expression (TOGA), 14 Day hypercholesterol + Lercanidipine (R) [11]: 872 | level of gene expression, 14 Day hypercholesterol + Lercanidipine (R) (REC1_19 (TGTT 393) mRNA): 748
